Source: patent publication US20250134095A1, “COMPOSITIONS FOR ORGAN AND TISSUE PRESERVATION” (Albert Einstein College of Medicine, priority 2021, published 2025)
“Also recorded” adds a separate entry of the source. Peptide text beside a SMILES is read from it. * marks the point of attachment. Cbz = O=C(OCc1ccccc1)*; CH2F = FC*

Key:
[1] = test system: mouse kidneys; assay: TUNEL staining for cell death in cold stored mouse kidneys; settings: 2 mg/kg total mouse weight in University of Wisconsin cold preservation solution, flush at organ recovery and storage, 72 hours cold storage
From the text: (§1) Methods: TUNEL Staining and Quantification. Frozen kidney sections were fixed with 4% paraformaldehyde and stained according to standard protocols for the In Situ Cell Death Detection Kit, TMR red (Millipore Sigma). The number of DAPI positive and TUNEL positive cells were quantified using cell counter macros in ImageJ across mouse, pig, and human samples.
(§2) Murine and Porcine Kidney Recoveries. Mouse and pig kidneys were recovered using standard organ recovery protocols. Prior to flushing the abdominal cavity with preservation solution, mice and pigs were given heparin to help increase flow and prevent clotting within the system.
Bax KO or Wildtype mice (3× per group) were euthanized and then organs recovered following standard organ transplant procedures. […] At the proscribed time points, kidneys were snap frozen for subsequent cell death assessment by fluorescent TUNEL staining of frozen sections collected on an EVOS2 scope. Quantification of TUNEL staining was performed with custom matlab code following standard image analysis procedures.
(§3) Mice were flushed with BAI supplemented University of Wisconsin solution (2 mg/kg total mouse weight) at time of organ recovery. Mouse kidneys were stored in the same concentration of BAI1 supplemented preservation solution that was used to flush the mice at time of organ harvest. Pig kidneys were flushed with 500 mL of University of Wisconsin solution supplemented with BAI1 at 10 μg/mL. They were then stored at 4° C. in 500 mL of University of Wisconsin solution supplemented with BAI1 at 10 μg/mL for 72 hours.

[2] = test system: pig kidneys; assay: TUNEL staining for cell death in cold stored pig kidneys; settings: flushed and stored at 4° C. in University of Wisconsin solution with 10 μg/mL, 72 hours
From the text: as §1, §2, §3

[3] = test system: human organ culture; assay: Cell death in human organ culture model (kidney)
Protocol: as §1
To better appreciate how kidneys respond to cold ischemia, a series of […] kidneys was biopsied at times from 12 to 72 hours of cold storage. To decreased observed cell death, a Bax inhibitor (BAI1) was tested in a human organ culture model.
To assess the extent of cell death during cold preservation, a series of eleven human kidneys were repeatedly biopsied at times from 12 to 72 hours of cold storage. […] Cell death increased over time and became apparent in marginal donors between 30-36 hours of cold storage. Human kidneys with the cell death phenotype were also shown to have distinct upregulation of metabolites (e.g. xylose, isothreonic acid, 3-hydroxy-3-methylglutaric acid, conduritol-beta-epoxide, hippuric acid, pseudo uridine, hydroxyproline dipeptide, 4-hydroxyhippuric acid) as compared to the younger, healthier cohort of organs.

SMILES | cell death during prolonged cold storage (TUNEL staining) [1] | cell death during prolonged cold storage (TUNEL staining) [2] | cell death in human organ culture after a period of warm injury ([3]; after a period of warm injury) | cell death in human organ culture during cold storage ([3]; during cold storage)
OC(CN1CCNCC1)Cn1c2ccc(Br)cc2c2cc(Br)ccc21 (stereo not shown) [BAI1] | prevents cell death; also recorded: abrogates cell death | prevents cell death | significantly decreased cell death | significantly decreased cell death
COC(=O)C[C@H](NC(=O)[C@H](C)NC(=O)[C@@H](NC(=O)OCc1ccccc1)C(C)C)C(=O)CF [Z-VAD-FMK] (Cbz-Val-Ala-Asp(OMe)-CH2F) | did not appear to reduce the amount of cell death | – | – | –
CCOC(=O)c1ccc(NC2CCCCC2)c(N)c1 [ferrostatin-1] | did not appear to reduce the amount of cell death | – | – | –
CN1C(=O)C(Cc2c[nH]c3ccccc23)NC1=S (stereo not shown) [necrostatin-1] | did not appear to reduce the amount of cell death | – | – | –
